Laboratory results taken from patent US10973863B2, “Method for regulating, preventing and/or treating pulmonary injury” (SINPHAR PHARMACEUTICAL CO., LTD., priority 2017, dated 2021).

Columns and labels:
MMP-9 = experiment: Gelatin zymography: LPS-activated active expression of MMP-9 in NR8383 cells; type: cell-based, rat; conditions: Table 4, LPS 1 μg/mL, 24 hours
Source text: As indicated above, when an inflammatory response occurs in animal's pulmonary tissue, the active inflammatory cells will secret MMPs that will destroy the pulmonary tissue structure, cause more serious pulmonary injury, and lead to the decrement in or the loss of pulmonary functions. […]
Thereafter, the medium of each group was collected and respectively subjected to the following procedures. A 10% polyacrylamide gel containing 0.2% gelatin was used to carry out the sodium dodecyl sulfate polyacrylamide gel electrophoresis (SDS-PAGE). After the electrophoresis was completed, the gel was sequentially soaked in 2.5% Triton X-100 solution for 90 minutes to remove SDS, soaked in distillation-distillation water (ddH2O) for 30 minutes, and placed in a reaction solution (50 mM Tris-HCl buffer containing 10 mM CaCl2 and 0.02% NaN3) at a temperature of 37° C. for 18 hours. After the foregoing reaction was completed, the gel was stained by a Coomassie blue staining solution, and the image of stained gel was taken and subjected to an image analysis. The image intensity (the image intensity was calculated based on the size of area and the shade of color) of highlight band (i.e., the gelatin in this area was degraded by MMPs, wherein the area locating around 95 kD molecular weight) on the gel of each group can reflect the active expression of MMP-9 of rat alveolar macrophage NR8383 cells under different conditions (the relative active expression of MMP-9 was calculated by serving the results of the blank group as 0% and serving that of the control group as 100%).
Rat alveolar macrophage NR8383 cells were divided into twenty-eight groups and separately cultivated with the following media for 24 hours: • (1) Blank group: a macrophage growth medium; • (2) Control group: a macrophage growth medium containing 1 μg/mL LPS; • (3) Positive control group: a macrophage growth medium containing 1 μg/mL LPS and 5 μM Prednisolone (a type of corticosteroid; abbreviated as “Pred”; purchased from Sigma-Aldrich); • (4) Extract C (including five sub-groups): a macrophage growth medium containing 1 μg/mL LPS and the extract C provided by [preparation example A-3-2], wherein the extract C is present in the five sub-groups at a concentration of […] respectively; • (5) Extract D (including five sub-groups): a macrophage growth medium containing 1 μg/mL UPS and the extract D provided by [preparation example A-4-2], wherein the extract D is present in the five sub-groups at a concentration of 0.78, 1.56, 3.13, 6.25 and 12.5 respectively; • (6) Extract E (including five sub-groups): a macrophage growth medium containing 1 μg/mL LPS and the extract E provided from [preparation example A-4-3], wherein the extract E is present in the five sub-groups at a concentration of 0.78, 1.56, 3.13, […], and 12.5 respectively; • (7) DATA group (including five sub-groups): a macrophage growth medium containing 1 μg/mL LPS and the dehydrotrametenolic acid (DTTA) provided by [preparation example C-1], wherein the dehydrotrametenolic acid (DTTA) is present in the five sub-groups at a concentration of 0.39, 0.78, 1.56, 3.13 and 6.25 μg/mL respectively; and • (8) PAA group (including live sub-groups): a macrophage growth medium containing 1 μg/mL LPS and the poricoic acid A (PAA) provided from [preparation example C-1], wherein the poricoic acid A (PAA) is present in the five sub-groups at a concentration of 6.25, 12.5, 25, 50 and 100 respectively.
Thereafter, the medium of each group was collected and analyzed by the analyzing procedures same as that of (1-1).

pro-form MMP-9 = experiment: Western blot: pro-form MMP-9 expression in LPS-treated NR8383 cells; type: cell-based, rat; conditions: 0.01 μg/mL LPS; 12.5 μg/mL; 24 hours; vs control group
Protocol: (§1) Rat alveolar macrophage NR8383 cells were divided into six groups and separately cultivated with the following media for 24 hours: • (1) Control group: a macrophage growth medium containing 0.01 μg/mL LPS; • (2) Positive control group: a macrophage growth medium containing 0.01 μg/mL LPS and 1 μM Dex; and • (3) Extract A group (including four sub-groups): a macrophage growth medium containing 0.01 μg/mL LPS and the extract A provided by [preparation example A-2-2], wherein the extract A is present in the four sub-groups at a concentration of 6.25, 12.5, 25 and 50 μg/mL respectively.
(§2) Thereafter, the proteins in the cells of each group were extracted and then subjected to a Western blot to measure the expression level of pro-form MMP-9 (i.e., the zymogen form of MMP-9), active-form MMP-9 and MMP-12. The relative expression level of pro-form MMP-9, active-form MMP-9 and MMP-12 of each group was calculated by using the results of the control group as a basis (i.e., the expression level of control group was served as 1-fold).
(§3) Rat alveolar macrophage NR8383 cells were divided into ten groups and separately cultivated with the following media for 24 hours:
(§4) (1) Control group: a macrophage growth medium containing 0.01 μg/mL LPS;
(§5) (2) Positive control group: a macrophage growth medium containing 0.01 μg/mL LPS and 1 μM Dex; […]

active-form MMP-9 = experiment: Western blot: active-form MMP-9 expression in LPS-treated NR8383 cells; type: cell-based, rat; conditions: 0.01 μg/mL LPS; 12.5 μg/mL; 24 hours; vs control group
Protocol: as §1, §2, §3, §4, §5

MMP-12 = experiment: Western blot: MMP-12 expression in LPS-treated NR8383 cells; type: cell-based, rat; conditions: 0.01 μg/mL LPS; 12.5 μg/mL; 24 hours; vs control group
Protocol: as §1, §2, §3, §4, §5

Mucin 5AC = experiment: Western blot: LPS-induced expression of Mucin 5AC in NCI-H929 cells; type: cell-based, human; conditions: 1 μg/mL LPS, 24 hours, vs control group
Source text: As indicated above, the hypersecretion of mucus in airway can be observed in the patients suffering from pulmonary injury-related diseases, such as chronic obstructive pulmonary disease and emphysema, and the mucus hypersecretion is associated with the overexpression of mucins in pulmonary tissue. Symptoms like the increased sputum production will occur in the patients suffering from the mucin hypersecretion in airway, and the increased sputum will accumulate in the airway and lung, thereby making the airway narrow and increasing respiratory resistance. To investigate the effects of active ingredients of FU-LING extract in regulating, preventing, and/or treating the pulmonary injury-related diseases, such as chronic obstructive pulmonary disease and emphysema, a Western blot was conducted to measure the inhibitory rate of active ingredients of FU-LING extract (tumulosic acid and poricoic acid A) on the LPS-induced expression of Mucin 5AC in human lung epithelial NCI-H929 cells.
Human lung epithelial NCI-H929 cells were divided into ten groups and separately cultivated with the following media for 24 hours:
(1) Control group: an epithelial cell growth medium containing […];
(2) Positive control group: an epithelial cell growth medium containing 1 μg/mL LPS and 10 μM Dex;
(3) TA group (including four sub-groups): an epithelial cell growth medium containing […] the tumulosic acid (TA) provided by [preparation example C-1], wherein the tumulosic acid (TA) is present in the four sub-groups at a concentration of 1.56, 3.13, 6.25 and 12.5 μg/mL respectively; and
(4) PAA group (including four sub-groups): an epithelial cell growth medium containing 1 μg/mL LPS the poricoic acid A (PAA) provided by [preparation example C-1], wherein the poricoic acid A (PAA) is present in the four sub-groups at a concentration of 6.25, 12.5, 25 and 50 μg/mL respectively.
as §2, with “Mucin 5AC.” for “pro-form MMP-9 (i.e., the zymogen form of MMP-9), active-form MMP-9 and MMP-12.”, “Mucin 5AC” for “pro-form MMP-9, active-form MMP-9 and MMP-12”

C=C(CC[C@@H](C(=O)O)[C@H]1[C@H](O)C[C@@]2(C)C3=C(CC[C@]12C)[C@@]1(C)CC[C@H](O)C(C)(C)[C@@H]1CC3)C(C)C [TA, tumulosic acid]
Relative active expression of MMP-9 (%) (MMP-9; 3.13 μg/mL): 60.6%
Relative active expression of MMP-9 (%) (MMP-9; 6.25 μg/mL): 28.4%
Relative active expression of MMP-9 (%) (MMP-9; 12.5 μg/mL): 0%
Inhibitory rate on the expression level of pro-form MMP-9 (pro-form MMP-9): 53%
Inhibitory rate on the expression level of active-form MMP-9 (active-form MMP-9): 100%
Inhibitory rate on the expression level of MMP-12 (MMP-12): 45%
Inhibitory rate on LPS-induced expression of Mucin 5AC (Mucin 5AC; 1.56 μg/mL (low-dose)): up to 75%
Inhibitory rate on LPS-induced expression of Mucin 5AC (Mucin 5AC; 12.5 μg/mL (high-dose)): ≤ 81%
